# Laboratory results as given in patent US20250283017A1, “CLEANING COMPOSITIONS WITH ALKYLATED AMINO ACID SURFACTANTS HAVING ANTIMICROBIAL PROPERTIES” (THE CLOROX COMPANY, priority 2024, published 2025).
# Key:
# [1] = test system: Staphylococcus aureus; assay: GST (germicidal spray test) AOAC 961.02 micro-efficacy of cleaning compositions; assay type: cell-based; conditions: 0.3 wt % alkylated amino acid, balance water, pH about 7, contact time 7 minutes; for GST efficacy in Cleaning Composition 1: 1 wt % lauryl amine oxide, 0.5 wt % butyl levulinate; for GST efficacy in Cleaning Composition 3: 1 wt % alkyl polyglucoside
# Protocol: A number of tests were conducted for Cleaning Compositions 1-3 including different alkylated amino acids as set forth in Tables 1 and 2 as described herein. Tests were conducted using GST (germicidal spray test) testing method AOAC 961.02 for micro-efficacy (i.e., ability to kill bacteria) against Staphylococcus aureus. The contact time in the test method was 7 minutes, and the neutralizer utilized was Letheen Broth+0.07% Lecithin+0.5% Tween 80.
# [2] = Stability of alkylated amino acid in cleaning composition 1 by HPLC-UV peak area vs t=0; assay type: physicochemical; conditions: HPLC-UV peak area relative to t=0; for % at t = 4 w (70° F.): 4 weeks; for % at t = 4 w (70° F.) / % at t = 8 w (70° F.): 70° F. (21° C.); for % at t = 8 w (70° F.) / % at t = 8 w (100° F.): 8 weeks; for % at t = 8 w (100° F.): 100° F. (38° C.)
# Protocol: The cleaning compositions were prepared using the formulation previously described herein as cleaning composition 1, where each tested cleaning composition was comprised of the following: 0.3 wt % alkylated amino acid, 1 wt % surfactant (lauryl amine oxide), 0.5 wt % fragrance (butyl levulinate), and balance water (about 98.2 wt % water).
# The stability tests were tested for amino acid stability at different temperatures, 70° F. (21° C.) and 100° F. (38° C.), over the following periods of time: 4 weeks (4w) and 8 weeks (8w). The samples tested were subjected to HPLC-UV analysis, and the peak areas of the plotted data corresponding to the alkylated amino acids in the samples at 4w and 8w were compared with the reference (sample at t=0) to obtain a percentage value (based upon measured area at different times divided by measured area of reference, t=0).
# Percentage values of 70% or greater indicate adequate stability of the alkylated amino acids within the cleaning compositions over the 4 and 8 week time periods and at the given temperatures, where increasing percentage values (e.g., above 85%, 90% or even at or greater than 100%) indicate very stable cleaning compositions with little or no degradation of the alkylated amino acids within the compositions.
SMILES,GST efficacy in Cleaning Composition 1 [1] [%],GST efficacy in Cleaning Composition 2 [1] [%],% at t = 4 w (70° F.) [2] [%],% at t = 8 w (70° F.) [2] [%],% at t = 8 w (100° F.) [2] [%],GST efficacy in Cleaning Composition 3 [1] [%]
CCCCCCCCCCCC(=O)NC(CCCNC(=N)N)C(=O)OCC (stereo not shown) [Example 1],>99.999,>99.999,80,71,27,–
CCCCCCCCCCCCNC(CCCNC(=N)N)C(=O)O (stereo not shown) [Example 2],>99.999,>99.999,100,100,100,–
CCCCCCCCCCCCNC(=O)C(N)CCCNC(=N)N (stereo not shown) [Example 4],>99.999,>99.999,106,112,81,–
CCCCCCCCCCCCNC(CCCNC(=N)N)C(=O)OCC (stereo not shown) [Example 5],>99.999,>99.999,–,–,–,–
CCCCCCCCCCCC(=O)NC(CCCCN)C(=O)OCC (stereo not shown) [Example 16],>99.999,>99.999,88,79,37,–
CCCCCCCCCCCCNC(CCCCN)C(=O)O (stereo not shown) [Example 17],>99.999,>99.999,90,102,102,–
CCCCCCCCCCCCNC(=O)C(N)CCCCN (stereo not shown) [Example 20],>99.999,>99.999,97,89,62,–
CCCCCCCCCCCC(=O)NCCCCC(N)C(=O)OCC (stereo not shown) [Example 21],>99.999,>99.999,13,4,0,–
CCCCCCCCCCCCNCCCCC(N)C(=O)O (stereo not shown) [Example 22],>99.999,>99.999,100,150,146,–
CCCCCCCCCCCCNCC(=O)OCC [Example 60],>99.999,–,8,0,0,–
CCCCCCCCCCCCOC(=O)CN [Example 61],>99.999,–,0,0,0,>99.8
CCCCCCCCCCCCNC(=O)CN [Example 62],>99.999,–,90,87,59,>99.999
CCCCCCCCCCCCNC(CC(C)C)C(=O)OCC (stereo not shown) [Example 80],99.99,99.4,93,85,89,–
CCCCCCCCCCCCOC(=O)C(N)CC(C)C (stereo not shown) [Example 81],>99.999,95.3,64,36,5,>99.8
CCCCCCCCCCCCNC(=O)C(C)CC(C)C (stereo not shown) [Example 82],>99.999,–,90,100,93,>99.999
CCCCCCCCCCCCNC(Cc1ccccc1)C(=O)OCC (stereo not shown) [Example 88],99.999,–,93,91,74,–
CCCCCCCCCCCCOC(=O)C(N)Cc1ccccc1 (stereo not shown) [Example 89],99.999,99.5,82,63,12,99.6
CCCCCCCCCCCCNC(=O)C(N)Cc1ccccc1 (stereo not shown) [Example 90],>99.999,–,104,101,96,>99.999
CCCCCCCCCCCCNC(Cc1ccc(O)cc1)C(=O)OCC (stereo not shown) [Example 92],99.99,–,99,59,57,–
CCCCCCCCCCCCOC(=O)C(N)Cc1ccc(O)cc1 (stereo not shown) [Example 93],>99.999,99.9,75,56,8,99.4
CCCCCCCCCCCCNC(=O)C(N)Cc1ccc(O)cc1 (stereo not shown) [Example 94],>99.999,–,98,94,86,>99.999
CCCCCCCCCCCCNC(Cc1c[nH]c2ccccc12)C(=O)OCC (stereo not shown) [Example 96],99.999,–,94,87,35,–
CCCCCCCCCCCCOC(=O)C(N)Cc1c[nH]c2ccccc12 (stereo not shown) [Example 97],>99.999,–,92,73,6,–
CCCCCCCCCCCCNC(=O)C(N)Cc1c[nH]c2ccccc12 (stereo not shown) [Example 98],>99.999,–,118,135,121,99.4
